Test results as given in US11806393B2, “Flavivirus peptide sequences, epitopes, and methods and uses thereof” (priority 2017, dated 2023).
Ends that are not written are not given here.

Legend:
[1] = tested on: splenocytes pulsed with ZIKV-derived peptides (target cells); type: in vivo, mouse; conditions: LysMCre+IFNARfl/fl mice infected with MR766 or FSS13025, day 7; targets pulsed with the three peptides; 12 h
Description: LysMCre^+IFNAR^fl/fl and WT mice were infected with 10^4 FFU of MR766 or FSS13025. Seven days post-infection, splenocytes were harvested from naïve donor mice, followed by stimulation with a pool of H-2b-restricted ZIKV-peptides (PrM169-177(SEQ ID NO: 19), E297-305 (SEQ ID NO: 25), N552783-2792 (SEQ ID NO: 20)) referred to as “Target Cells” or with DMSO for 3 h at 37° C. The cells were washed and labeled with CSFE (Invitrogen) in PBS/0.1% BSA for 10 min at 37° C. Target cells were labeled with 1 μM CSFE (High) or 100 nM CSFE (Low) for unstimulated cells. After washing, 10^7 of labeled cells (5×10^6 of each population) were injected intravenously into MOCK and infected recipients. Splenocytes from recipients were harvested 4 (Wild type) or 12 h later (LysMCre^+IFNAR^fl/fl) and analyzed by flow cytometry. The percentage of killing is calculated as followed: 100−(% ZIKV-peptide stimulated in infected mice/% DMSO-stimulated in infected mice)/(% ZIKV-peptide stimulated in naïve mice/% DMSO-stimulated in naïve mice)×100).
The following results are with respect to FIG. 7A to FIG. 7E, where WT C57BL/6 mice treated with type I IFN receptor-blocking antibody on day 1 prior to infection were inoculated with 10^4 FFU of ZIKV strain MR766 (n=3) or FSS (n=3), or injected with 10% FBS/PBS (MOCK, n=2). […] Four independent experiments for MR766 (n=8 mice per experiment) and two independent experiments for FSS13025 (n=8 mice per experiment) were performed in triplicate for each peptide. The data are expressed as the mean of spot forming cells (SFC) per 10^6 CD8^+ T cells. One-way ANOVA was used to compare the mean of each peptide with the control (DMSO). […] Pooled data from two independent experiments are shown. The dotted line corresponds to the average value obtained by MOCK after stimulation (0.43% of IFNγ^+CD8^+ T cells). Splenocytes were harvested on day 7 post-infection, followed by stimulation with 1 μg of IFNγ-ELISPOT-positive ZIKV-derived peptides in presence of Brefeldin A (BFA) and CD107a for 4 hours, and the production of IFNγ and TNFα was assessed via ICS. […]

CD8+ T cells [2] = assay: ICS, LysMCre+IFNARfl/fl mice; type: cell-based, mouse; conditions: LysMCre+IFNARfl/fl mice infected with MR766 or FSS13025
Description: (§1) For intracellular cytokine staining (ICS), splenocytes were counted after red blood cell lysis and resuspended in 10% FBS/RPMI medium at 40×10^6 cells per ml. Splenocytes (2×10^6) were plated and stimulated with 1 μg of individual peptide as previously detailed (Elong Ngono et al., 2016). Positive (PMA-Ionomycin) and negative (No stimulation) controls were added for all experiments. Cells were labeled with anti-CD3 (Clone 145-2C11), anti-CD8 (clone 53-67), anti-CD44 (clone IM7), and anti-CD62L (clone Mel-14). Cells then were fixed and permeabilized, followed by staining with anti-granzyme B (clone NGZB), anti-IFNγ (clone XMG 1.2) and anti-TNFα(clone MP6-XT22). Samples were read on an LSR II (BD Biosciences) and were analyzed using FLOWJO™ software X 10.0.7 (Tree Star, Ashland, Oreg.).
The following results are with reference to FIG. 3A and FIG. 3B, where five-week-old LysMCre^+IFNAR^fl/fl were infected retro-orbitally with 10^4 FFU of ZIKV MR766 or FSS13025. […] A total of 244 peptides from ZIKV strains predicted to bind H-2Kb and H-2db with high affinity were screened. Two independent experiments for each ZIKV strain (n=5 mice for each experiment) were performed in triplicate per peptide. The data are expressed as the mean of spot forming cells (SFC) per 10^6 CD8^+ T cells, and error bars are represented as SEM. […]

CD8+ T cells [3] = assay: Intracellular cytokine staining (ICS), WT C57BL/6 mice treated with IFNAR-blocking antibody; type: cell-based, mouse; conditions: splenocytes day 7 after MR766 or FSS13025; four peptides shared by both strains, NS31866-1874 MR766 only
Description: as §1
The following results are with respect to FIG. 7A to FIG. 7E, where WT C57BL/6 mice treated with type I IFN receptor-blocking antibody on day 1 prior to infection were inoculated with 10^4 FFU of ZIKV strain MR766 (n=3) or FSS (n=3), or injected with 10% FBS/PBS (MOCK, n=2). […] The data are expressed as the mean of spot forming cells (SFC) per 10^6 CD8^+ T cells. […] Splenocytes were harvested on day 7 post-infection, followed by stimulation with 1 μg of IFNγ-ELISPOT-positive ZIKV-derived peptides in presence of Brefeldin A (BFA) and CD107a for 4 hours, and the production of IFNγ and TNFα was assessed via ICS. […]

CD8+ T cells [4] = conditions: H-2b restricted; cited from earlier work

Row | Sequence | in vivo cytotoxicity against peptide-pulsed splenocytes [1] | immunodominance of epitopes (IFNγ+TNFα+ and CD107a+IFNγ+ ICS) (CD8+ T cells [2]) | frequency of IFNγ-producing CD8+ T cells (ICS) (CD8+ T cells [3]) | cross-reactivity with CD8+ T cells induced in DENV2-infected mice (CD8+ T cells [4])
1 | ATMSYECPM [SEQ ID NO 19] | high percentage of cytotoxicity |  |  | 
2 | CAEAPNMKVI [SEQ ID NO 20] | high percentage of cytotoxicity |  |  | 
3 | IGVSNRDFV [SEQ ID NO 21] |  | immunodominant epitopes | induced a high frequency of IFNγ-expressing cells | cross-reactive
4 | PSVRNGNEI [SEQ ID NO 5] |  |  | induced a high frequency of IFNγ-expressing cells | cross-reactive
5 | SNRDFVEGM [SEQ ID NO 25] | high percentage of cytotoxicity |  |  | 
